Measured values reported in US10751324B2, “Treatment of TNF- alpha cytotoxicity” (The University of Chicago, priority 2016, dated 2020).

Tests used:
IKKß = biological target: T1, IKKß (Mus musculus, UniProt O88351); assay: IKKß phosphorylation by immunoblotting in TNFα-treated MEFs ("in vitro kinase assay"); format: cell-based; settings: MEFs pre-treated with different doses for 1 hour, then cytotoxic TNFα 15 min; immunoblot, FIG. 17
T1 construct: Total cell lysate was prepared for western blotting analysis; endogenous in cells; host or cells: mouse embryonic fibroblasts (MEFs)
T1 sequence (O88351 1-757): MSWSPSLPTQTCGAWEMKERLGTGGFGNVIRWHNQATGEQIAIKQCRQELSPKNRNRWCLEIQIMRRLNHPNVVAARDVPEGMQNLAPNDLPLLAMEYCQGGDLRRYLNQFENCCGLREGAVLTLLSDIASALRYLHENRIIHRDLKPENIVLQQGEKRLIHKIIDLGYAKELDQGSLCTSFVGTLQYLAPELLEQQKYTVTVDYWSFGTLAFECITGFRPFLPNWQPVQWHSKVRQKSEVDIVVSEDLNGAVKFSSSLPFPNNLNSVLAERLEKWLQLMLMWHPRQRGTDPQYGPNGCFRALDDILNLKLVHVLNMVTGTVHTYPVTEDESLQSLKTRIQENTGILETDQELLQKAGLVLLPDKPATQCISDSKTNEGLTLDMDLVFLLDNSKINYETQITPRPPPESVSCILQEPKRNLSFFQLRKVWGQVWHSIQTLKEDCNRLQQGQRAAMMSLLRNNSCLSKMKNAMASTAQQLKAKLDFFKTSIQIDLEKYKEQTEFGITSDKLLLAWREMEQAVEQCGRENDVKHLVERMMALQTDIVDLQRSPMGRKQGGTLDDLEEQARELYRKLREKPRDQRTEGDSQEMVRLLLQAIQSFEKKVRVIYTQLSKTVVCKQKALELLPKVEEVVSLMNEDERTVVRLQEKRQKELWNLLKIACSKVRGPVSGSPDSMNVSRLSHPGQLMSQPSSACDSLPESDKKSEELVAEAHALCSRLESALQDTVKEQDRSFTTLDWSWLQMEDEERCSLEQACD

BAD [1] = assay: Cytotoxic dose TNFα-induced BAD translocation to mitochondria, cell fractionation and immunoblotting in MEFs; settings: MEFs pre-treated with different doses 1 hour, cytotoxic TNFα 4 hours; FIG. 19B
BAD [2] = assay: TNFα-induced BAD mitochondrial translocation in fibroblasts pre-treated with actin stress fiber modulators; format: cell-based, mouse; settings: for cytotoxic dose TNFα-induced BAD mitochondrial translocation: pre-treated 1 hour (30 nM Jasplakinolide or 5 μM S1P), then 80 ng/ml TNFα, FIG. 10A, 10C; for BAD mitochondrial translocation with non-cytotoxic dose TNFα: pre-treated 1 hour (1 μg/ml Cytochalasin D or 2.5 μg/ml Latrunculin B), 5 ng/ml TNFα 4 hours, FIG. 10E, 10G
Method: Immunoprecipitation was performed as previously described (12). Caspase 3 assay was performed with Casp-3 cellular activity assay kit using Casp-3 substrate Ac-DEVD-pNA (Calbiochem). Active RhoA, active Src, and active Cdc42 assays were performed with G-LISA assay biochemical kit (Cytoskeleton, Inc.). Active GEF-H1 assay was performed by using GST-RhoA(G17A) to pull down the active GEF-H1 from cell extracts and analyzed by immunoblotting. Cytosol and mitochondria fractionations were prepared by the cytosol/mitochondria fractionation kit (Biovision), according to the manufacturer protocol. Cytoskeleton precipitation and G-actin/F-actin assay were performed by the G-actin/F-actin in vivo assay biochem kit (Cytoskeleton, Inc.)
(§1) WT and Bad-deficient fibroblasts were pre-treated with 30 nM Jasplakinolide (FIG. 10A and FIG. 10B), 5 μM Sphingosine-1-phosphate (S1P) (FIG. 10C and FIG. 10D) or DMSO (control) for 1 hour, followed by stimulation with or without 80 ng/ml TNFα for various times, as indicated. Cell extracts were separated into cytosol and mitochondrial fractions. Subcellular localizations of BAD and IKK-phosphorylated BAD were determined. ß-actin, BCL-xL, and COX-2 were used as control (FIG. 10A and FIG. 10C). Apoptotic cells were identified by Annexin V and PI staining, followed by flow cytometric analysis. Data are as means±s.d. **, P<0.01, as analyzed by two-tailed Student's t test (FIG. 10B and FIG. 10D).
(§2) WT and Bad-deficient fibroblasts were pretreated with 1 μg/ml Cytochalasin D (FIG. 10E and FIG. 10F), 2.5 μg/ml Latrunculin B (FIG. 10G and FIG. 10H), or DMSO (control) for 1 hours, followed by stimulation with or without 5 ng/ml or 80 ng/ml TNFα for 4 hours (FIG. 10E and FIG. 10G) or 12 hours (FIG. 10F and FIG. 10H). Cell extracts were separated into cytosol and mitochondrial fractions. Subcellular localizations of BAD and IKK phosphorylated BAD were determined. ß-actin, BCL-xL, and COX-2 were used as control (FIG. 10E and FIG. 10G). Apoptotic cells were identified by Annexin V and PI staining, followed by flow cytometric analysis. Data are means±s.d. and represent three individual experiments. **, P<0.01, as analyzed by two-tailed Student's t test (FIG. 10B, FIG. 10D, FIG. 10F, and FIG. 10H).

WT fibroblasts = assay: TNFα-induced apoptosis in fibroblasts pre-treated with actin stress fiber modulators, Annexin V/PI flow cytometry; format: cell-based, mouse; settings: for cytotoxic dose TNFα-induced apoptosis: pre-treated 1 hour (30 nM Jasplakinolide or 5 μM S1P), then 80 ng/ml TNFα, FIG. 10B, 10D; for apoptosis with non-cytotoxic dose TNFα: pre-treated 1 hour (1 μg/ml Cytochalasin D or 2.5 μg/ml Latrunculin B), 5 ng/ml TNFα 12 hours, FIG. 10F, 10H
Method: Annexin V and propidium iodide (PI) staining was performed with FITC Annexin V apoptosis Detection kit (BD Pharmingen). Apoptotic cells were analyzed by FACS canto flow cytometer (BD Biosciences).
as §1, §2

[3] = tested on: wild type mice subjected to CLP surgery; assay: Polymicrobial infection model (cecal ligation and puncture, CLP), mortality rate; format: in vivo, mouse; settings: 2.5 mg/kg i.p. 6 hours before CLP and each 12 hours after surgery; n=10, p<0.01; FIG. 20B
Method: Wild type C57B6/J6 mice were maintained in a specific pathogen-free facility and housed on a 12:12-hour light/dark photoperiod at an ambient temperature of 22° C.±2° C. All animal experiments were conducted in accordance with the protocols approved by the Institutional Animal Care and Use Committee of the University of Chicago. 6-8 week old male mice were used for all of the experiments. The bacterial infusion model was performed by intraperitoneal (i.p.) injection of E. coli (ATCC 25922; 3×10^7 CFU). For the polymicrobial infection model, the CLP procedure was performed. The severity of CLP was adjusted to a high-grade sepsis. For the mock CLP procedure (Sham), mice underwent the same abdominal surgery as CLP procedure, except were not subject to the cecal ligation and puncture. Inhibitor treatments were performed using i.p. injection of the compound at a dose of 2.5 mg/kg body weight. Same amount of DMSO were i.p. injected as a control. […] Mortality rates were recorded for up to 120 hours for the CLP model and 50-60 hours for the E. coli model after the treatment and dying mice were pre-moved. […]
In these experiments, wild type mice were i.p injected with or without saracatinib (2.5 mg/kg body weight) for 6 hours, then challenged with E. coli (5×10^7CFU, i.p. injection). […] Mortality rate was determined (FIG. 20A); n=6, p<0.01. […] Mortality rate was determined (FIG. 20B); n=10, p<0.01.

Cc1nc(Nc2ncc(C(=O)Nc3c(C)cccc3Cl)s2)cc(N2CCN(CCO)CC2)n1.O [dasatinib, N-(2-chloro-6-methylphenyl)-2-[[6-[4-(2-hydroxyethyl)-1-piperazinyl]-2-methyl-4-pyrimidinyl]amino]-5-thiazole carboxamide monohydrate] was tested, and the IKK phosphorylation (IKKß) was “do not inhibit” and the “cytotoxic dose TNFα-induced BAD translocation to mitochondria” value (BAD [1]) was “inhibit”.

For CCCCCCCCCCCCC/C=C/[C@@H](O)[C@@H](N)COP(=O)(O)O [sphingosine-1-phosphate, Sphingosine-1-phosphate], the “cytotoxic dose TNFα-induced BAD mitochondrial translocation” value (BAD [2]) was “significantly reduced” and the “cytotoxic dose TNFα-induced apoptosis” value (WT fibroblasts) was “significantly reduced”.

CN1CCN(CCOc2cc(OC3CCOCC3)c3c(Nc4c(Cl)ccc5c4OCO5)ncnc3c2)CC1 [saracatinib] was tested, and the “cytotoxic dose TNFα-induced BAD translocation to mitochondria” value (BAD [1]) was “inhibit”.

With C=C1[C@@H](C)[C@H]2[C@H](Cc3ccccc3)NC(=O)[C@]23[C@H](OC(C)=O)/C=C/[C@@](C)(O)C(=O)[C@@H](C)C/C=C/[C@H]3[C@@H]1O [cytochalasin D, Cytochalasin D] the “BAD mitochondrial translocation with non-cytotoxic dose TNFα” value (BAD [2]) was “induced” and the “apoptosis with non-cytotoxic dose TNFα” value (WT fibroblasts) was “induced”.

With [2H]C([2H])([2H])N1CCN(CCOc2cc(OC3CCOCC3)c3c(Nc4c(Cl)ccc5c4OCO5)ncnc3c2)CC1 [ZG5129] the “polymicrobial infection-induced severe sepsis (mortality rate)” value [3] was “inhibit”.

C/C1=C/C(=O)O[C@@H]2C[C@@H](CC[C@H](C)/C=C\CC1)O[C@@](O)([C@@H]1CSC(=O)N1)C2 [latrunculin B, Latrunculin B] was tested, and the “BAD mitochondrial translocation with non-cytotoxic dose TNFα” value (BAD [2]) was “induced” and the “apoptosis with non-cytotoxic dose TNFα” value (WT fibroblasts) was “induced”.

For C/C1=C\[C@H](C)C[C@H](C)OC(=O)C[C@H](c2ccc(O)cc2)NC(=O)[C@@H](Cc2c(Br)[nH]c3ccccc23)N(C)C(=O)[C@H](C)NC(=O)[C@@H](C)C1 [Jasplakinolide], the “cytotoxic dose TNFα-induced BAD mitochondrial translocation” value (BAD [2]) was “significantly reduced” and the “cytotoxic dose TNFα-induced apoptosis” value (WT fibroblasts) was “significantly reduced”.
